This is an account of results in publication PMC9556331, “Structural basis for directional chitin biosynthesis” (Nature, 2022).

The target of series [1] is T1, chitin synthase PsChs1 (Phytophthora sojae, UniProt G4Z2L3).
T1 construct: gene CHS1; full-length PsChs1 with C-terminal tandem twin Strep tag and Flag tag; residues 40-860 built, 743-758 disordered; homodimer
As to the kind of experiment: cryo-EM structure ([…] Å). Format: binding.

Series [2] deals with T1, chitin synthase PsChs1. Briefly: cryo-EM structure ([…] Å) plus enzyme inhibition kinetics (competitive Ki). Format: biochemical.
Series [3] deals with the molecule itself. Briefly: AUC; purified recombinant PsChs1 in the presence of detergent; molar mass of the main peak compared with the 107 kDa monomer.
Series [4] concerns the molecule itself. Briefly: cryo-EM structure; purified protein at about 5 mg/ml in digitonin buffer; apo or with UDP-GlcNAc, UDP/(GlcNAc)3, UDP or NikZ; C2 symmetry imposed.

Regarding `O=c1ccn([C@@H]2O[C@H](COP(=O)(O)OP(=O)(O)O)[C@@H](O)[C@H]2O)c(=O)[nH]1` [UDP], in series [1], the “cryo-EM structure (3.1 Å)” value is recorded as “The UDP-bound dimeric PsChs1 structure represents its nascent chitin-released state”.

One may read the Ki as a measure of affinity in units of concentration, obtained from inhibition or displacement. As to `C[C@@H]([C@H](N)C(=O)N[C@H](C(=O)O)[C@H]1O[C@@H](n2ccc(=O)[nH]c2=O)[C@H](O)[C@@H]1O)[C@H](O)c1ccc(O)cn1` [NikZ, nikkomycin Z], the Ki in series [2] is 151 ± 4.8 µM.

B1: Phytophthora sojae chitin synthase PsChs1 (enzyme)
chain: MSGAPPPSSGFAPRSYGQQPLSHAPRSSMMSVEYDGIPLPPPSIRSCGSQQYVTSYIPTGAAFPPSSVQDMISSMKSYASATDLVRTYSEIPSVEEALSTLDRAAAALNARRYRDALKLYLEGGYAMANVAERQANPKICNLLTSKGFETLNWCARLCDWIEGRIKEKHPRPGVHKVGIPVSNWDEDWVGPFMDEEEARRMWYTPVYCPHPIDFSNLGYRLRCVETGRRPRLMICITMYNEGPQQLKATLKKLANNLAYLKEQMPGDEKSLTGAFAGDDVWQNVLVCIVADGREQVHPKTLDYLEAIGLYDEDLLTINSAGIGAQCHLFEHTLQLSVNGKCLLPIQTVFALKENKASKLDSHHWYFNAFAEQIQPEYTAVMDVGTMLTKSALYHLLFAFERNHQIGGACGQLTVDNPFENLSNWVISAQHFEYKISNILDKSLESCFGFISVLPGAFSAYRYEAIRGAPLDAYFQTLNIELDVLGPFIGNMYLAEDRILSFEVVARKNCNWTMHYVKDAVARTDVPHDLVGLISQRKRWLNGAFFATLFSIWNWGRIYSESKHTFVRKMAFLVFYVYHLLYTAFGFFLPANLYLALFFIVFQGFQQNRLEFIDTSEYSQTVLDCAVYIYNFSYLFGLLMLIIIGLGNNPKHMKLTYYFVGAVFGLMMMLSSLVGAGIFFSTPATVHSIVVSILTVGVYFIASALHGEVHHIFMTFTHYTALIPSFVNIFTIYSFCNLQDLSWGTKGLHDDPLLAASLDETEKGDFKDVIAKRRALEELRREEKERVENRKKNFEAFRTNVLLTWAFSNLIFALFVVYFASSSTYMPVLYIFVASLNTCRLLGSIGHWVYIHTEGLRGRVIDKSECGNGTGRYPQNSYVQLEEHYAALAEDQRTYASGRTNASVRTVNDVSSAA
notes: also called native PsChs1; wild-type PsChs1
The stoichiometry N is the number of molecules, sites or subunits per partner or assembly. For B1, the “stoichiometry N” value in series [3] came out at 2.

B2: PsChs1 E495A (used for the UDP-GlcNAc-bound structure) (enzyme)
chain: MSGAPPPSSGFAPRSYGQQPLSHAPRSSMMSVEYDGIPLPPPSIRSCGSQQYVTSYIPTGAAFPPSSVQDMISSMKSYASATDLVRTYSEIPSVEEALSTLDRAAAALNARRYRDALKLYLEGGYAMANVAERQANPKICNLLTSKGFETLNWCARLCDWIEGRIKEKHPRPGVHKVGIPVSNWDEDWVGPFMDEEEARRMWYTPVYCPHPIDFSNLGYRLRCVETGRRPRLMICITMYNEGPQQLKATLKKLANNLAYLKEQMPGDEKSLTGAFAGDDVWQNVLVCIVADGREQVHPKTLDYLEAIGLYDEDLLTINSAGIGAQCHLFEHTLQLSVNGKCLLPIQTVFALKENKASKLDSHHWYFNAFAEQIQPEYTAVMDVGTMLTKSALYHLLFAFERNHQIGGACGQLTVDNPFENLSNWVISAQHFEYKISNILDKSLESCFGFISVLPGAFSAYRYEAIRGAPLDAYFQTLNIELDVLGPFIGNMYLAADRILSFEVVARKNCNWTMHYVKDAVARTDVPHDLVGLISQRKRWLNGAFFATLFSIWNWGRIYSESKHTFVRKMAFLVFYVYHLLYTAFGFFLPANLYLALFFIVFQGFQQNRLEFIDTSEYSQTVLDCAVYIYNFSYLFGLLMLIIIGLGNNPKHMKLTYYFVGAVFGLMMMLSSLVGAGIFFSTPATVHSIVVSILTVGVYFIASALHGEVHHIFMTFTHYTALIPSFVNIFTIYSFCNLQDLSWGTKGLHDDPLLAASLDETEKGDFKDVIAKRRALEELRREEKERVENRKKNFEAFRTNVLLTWAFSNLIFALFVVYFASSSTYMPVLYIFVASLNTCRLLGSIGHWVYIHTEGLRGRVIDKSECGNGTGRYPQNSYVQLEEHYAALAEDQRTYASGRTNASVRTVNDVSSAA
notes: source: HEK293F, transiently transfected, purified as the native PsChs1 (Strep-TactinXT, anti-Flag M2 resin, SEC)
As for B2, the “stoichiometry N” value in series [4] turned out to be 2.
